The source of these data is US7923465B2, “Cannabinoid receptor ligands, pharmaceutical compositions containing them, and process for their preparation” (priority 2005, dated 2011).

Each structure is given as a SMILES string.

The target in this experiment is hCB1 (Homo sapiens, UniProt P21554). Briefly: In vitro binding assay using hCB1-CHO membranes, [3H]-CP-55,940 displacement (Protocol II). Further details: expressed in transfected cells; host or cells: CHO (hCB1-CHO, generated in-house). Summed up: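 Incubated 1 h at 37° C, stopped by rapid vacuum filtration on PEI-precoated GF/B filters, bound radioactivity counted by liquid scintillation.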
hCB1, sequence (P21554 whole entry): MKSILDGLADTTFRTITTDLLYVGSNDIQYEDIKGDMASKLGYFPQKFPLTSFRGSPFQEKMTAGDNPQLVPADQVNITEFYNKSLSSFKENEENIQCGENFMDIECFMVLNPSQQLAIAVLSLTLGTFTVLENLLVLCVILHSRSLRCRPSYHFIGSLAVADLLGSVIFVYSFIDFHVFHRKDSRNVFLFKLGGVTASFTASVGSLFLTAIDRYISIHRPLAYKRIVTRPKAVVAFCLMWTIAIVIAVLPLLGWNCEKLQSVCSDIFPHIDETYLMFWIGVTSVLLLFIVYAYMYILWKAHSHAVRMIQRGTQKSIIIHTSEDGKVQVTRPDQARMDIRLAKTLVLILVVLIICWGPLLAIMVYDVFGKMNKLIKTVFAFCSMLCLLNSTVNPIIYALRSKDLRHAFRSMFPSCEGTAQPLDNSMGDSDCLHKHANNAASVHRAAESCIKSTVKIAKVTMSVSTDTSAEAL

In the case of `O=C(NN1CCCCC1)c1nn(-c2ccc(Cl)cc2)c2c1C1CC3CC(C1)CC2C3` [Example 140, N(7)-Piperidino-5-(4′-chlorophenyl)-5,6-diazatetracyclo[7.3.1.1^3,11.0^4,8]tetradeca-4(8)-6-diene-7-carboxamide], the “% Displacement Protocol II” value stood at 57.85%.
